Measured values taken from patent US20050096327A1, “Novel norepinephrine reuptake inhibitors for the treatment of central nervous system disorders” (priority 2003, published 2005).
Where a name gives a salt, the structure may show the parent alone.

What follows are compounds tested against T1, human norepinephrine transporter (Homo sapiens, UniProt P23975) (assay: hNET receptor binding ([125I]-RTI-55, membranes of transfected HEK-293 cells)). Conditions: 50 pM [125I]-RTI-55, 90 min room temperature; IC50 converted by Cheng-Prusoff.
T1 construct: host or cells: HEK-293
T1 sequence (P23975 whole entry): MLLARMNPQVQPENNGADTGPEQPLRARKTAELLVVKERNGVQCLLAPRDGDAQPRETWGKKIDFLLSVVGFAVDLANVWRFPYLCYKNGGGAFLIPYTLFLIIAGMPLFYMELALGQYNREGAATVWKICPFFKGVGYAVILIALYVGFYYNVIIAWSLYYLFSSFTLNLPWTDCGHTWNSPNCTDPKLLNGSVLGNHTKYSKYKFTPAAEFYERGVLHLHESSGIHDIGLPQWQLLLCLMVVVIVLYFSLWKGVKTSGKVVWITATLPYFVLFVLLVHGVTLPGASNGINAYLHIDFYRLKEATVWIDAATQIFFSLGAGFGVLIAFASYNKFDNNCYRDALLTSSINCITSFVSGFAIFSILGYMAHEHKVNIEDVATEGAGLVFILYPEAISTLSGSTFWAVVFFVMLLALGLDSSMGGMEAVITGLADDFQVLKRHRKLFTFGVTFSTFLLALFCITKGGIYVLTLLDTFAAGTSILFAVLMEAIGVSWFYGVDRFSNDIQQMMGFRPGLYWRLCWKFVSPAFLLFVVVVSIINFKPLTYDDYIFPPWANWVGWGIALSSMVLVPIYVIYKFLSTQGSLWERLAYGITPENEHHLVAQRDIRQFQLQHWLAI
Method: Cell pastes of HEK-293 cells transfected with the human norepinephrine transporter were supplied by the Pfizer Ann Arbor Protein Expression and Production group. Pellets were resuspended in 400 to 700 ml of Krebs-HEPES assay buffer (25 mM HEPES, 122 mM NaCl, 3 mM KCl, 1.2 mM MgSO4, 1.3 mM CaCl2, and 11 mM glucose, pH 7.4) with a Polytron homogenizer at setting 7 for 30 sec. Aliquots of membranes (5 mg/ml protein) were stored in liquid nitrogen until used.
The binding assay was set up in Beckman deep-well polypropylene plates with a total volume of 250 μl containing: drug (10^−5M to 10^−12M), cell membranes, and 50 pM [^125I]-RTI-55 (Perkin Elmer, NEX-272; specific activity 2200 Ci/mmol). The reaction was incubated by gentle agitation for 90 min at room temperature and was terminated by filtration through Whatman GF/C filter plates using a Brandel 96-well plate harvester. Scintillation fluid (100 μl) was added to each well, and bound [^125I]-RTI-55 was determined using a Wallac Trilux Beta Plate Counter. Test compounds were run in duplicate, and specific binding was defined as the difference between binding in the presence and absence of 10 μM desipramine.
Excel and GraphPad Prism software were used for data calculation and analysis. IC50 values were converted to Ki values using the Cheng-Prusoff equation. The Ki values for the hNET are reported below in Table 1.

| Ki | Compound |
| --- | --- |
| 89.2 nM | NCCNc1nc(-c2ccccc2)c2ccccc2n1 [Example 13, N^1-(4-Phenyl-quinazolin-2-yl)-ethane-1,2-diamine hydrochloride] |
| 4.8 nM | Clc1ccccc1-c1nc(N2CCNCC2)nc2ccccc12 [Example 22, 4-(2-Chloro-phenyl)-2-piperazin-1-yl-quinazoline hydrochloride] |
| 4.8 nM | Fc1cccc(F)c1-c1nc(N2CCNCC2)nc2ccccc12 [Example 29, 4-(2,6-Difluoro-phenyl)-2-piperazin-4-yl-quinazoline hydrochloride] |
| 34.5 nM | C[C@@H]1CN(c2nc(-c3ccccc3)c3ccccc3n2)CCN1 [Example 31, (R)-(+)-2-(3-Methyl-piperazin-1-yl)-4-phenyl-quinazoline] |
| 4 nM | Fc1ccccc1-c1nc(C2CCNCC2)nc2ccccc12 [Example 41, 4-(2-Fluoro-phenyl)-2-(piperidin-4-yl)-quinazoline hydrochloride] |
| 62.5 nM | CN1CCC(c2nc(-c3ccccc3Cl)c3ccccc3n2)CC1 [Example 44, 4-(2-Chloro-phenyl)-2-(1-methyl-piperidin-4-yl)-quinazoline] |
| 8.7 nM | Clc1ccccc1-c1nc(C2CCNCC2)nc2ccccc12 [Example 45, 4-(2-Chloro-phenyl)-2-piperidin-4-yl-quinazoline hydrochloride] |
| 60.3 nM | COc1ccccc1-c1nc(C2CCNCC2)nc2ccccc12 [Example 46, 4-(2-Methoxy-phenyl)-2-piperidin-4-yl-quinazoline hydrochloride] |
| 4.1 nM | Fc1cccc(-c2nc(N3CCNCC3)nc3ccccc23)c1 [Example 60, 4-(3-Fluoro-phenyl)-2-piperazin-1-yl-quinazoline] |
| 17.6 nM | Clc1cccc(Cl)c1-c1nc(N2CCNCC2)nc2ccccc12 [Example 63, 4-(2,6-Dichloro-phenyl)-2-piperazin-1-yl-quinazoline] |
| 17.7 nM | Fc1ccc2nc(C3CCNCC3)nc(-c3ccccc3F)c2c1 [Example 64, 6-Fluoro-4-(2-fluoro-phenyl)-2-piperidin-4-yl-quinazoline] |
| 5.5 nM | Fc1cccc(-c2nc(C3CCNCC3)nc3ccccc23)c1 [Example 66, 4-(3-Fluoro-phenyl)-2-piperidin-4-yl-quinazoline] |
| 53.5 nM | CN1CCC(c2nc(-c3cccc(F)c3)c3ccccc3n2)CC1 [Example 67, 4-(3-Fluoro-phenyl)-2-(1-methyl-piperidin-4-yl)-quinazoline] |
| 37.9 nM | CN1CCC(c2nc(-c3c(F)cccc3F)c3ccccc3n2)CC1 [Example 69, 4-(2,6-Difluoro-phenyl)-2-(1-methyl-piperidin-4-yl)-quinazoline] |
| 2.9 nM | Fc1cccc(F)c1-c1nc(C2CCNCC2)nc2ccccc12 [Example 70, 4-(2,6-Difluoro-phenyl)-2-piperidin-4-yl-quinazoline] |
| 3 nM | Fc1cccc(-c2nc(C3CCNCC3)nc3ccccc23)c1F [Example 71, 4-(2,3-Difluoro-phenyl)-2-piperidin-4-yl-quinazoline] |
| 15.9 nM | Fc1ccc(F)c(-c2nc(C3CCNCC3)nc3ccccc23)c1F [Example 73, 2-Piperidin-4-yl-4-(2,3,6-trifluoro-phenyl)-quinazoline] |
| 22.9 nM | CN1CCC(c2nc(-c3c(F)cccc3Cl)c3ccccc3n2)CC1 [Example 74, 4-(2-Chloro-6-fluoro-phenyl)-2-(1-methyl-piperidin-4-yl)-quinazoline] |
| 22.8 nM | Fc1ccccc1-c1nc(C2CCCNC2)nc2ccccc12 (centres unmarked) [Example 77, 4-(2-Fluoro-phenyl)-2-piperidin-3-yl-quinazoline] |
| 19.8 nM | Cc1ccccc1-c1nc(C2CCCNC2)nc2ccccc12 (centres unmarked) [Example 78, 2-Piperidin-3-yl-4-o-tolyl-quinazoline] |
| 63.4 nM | Fc1ccccc1-c1nc(C2(c3ccccc3)CCNCC2)nc2ccccc12 [Example 79, 4-(2-Fluoro-phenyl)-2-(4-phenyl-piperidin-4-yl)-quinazoline] |

More lines, now with the values behind:

| Compound | Ki |
| --- | --- |
| 2-Piperazin-1-yl-4-s-tolyl-quinazoline hydrochloride [Example 53] | 10.5 nM |
| 4-(2,4-Difluoro-phenyl)-2-piperazin-1-yl)-quinazoline hydrochloride [Example 38] | 2 nM |
| c1ccc(-c2nc(N3CCNCC3)nc3ccccc23)cc1 [Example 3, 4-Phenyl-2-piperazin-1-yl-quinazoline] | 4.8 nM |
| c1ccc(-c2nc(N3CC4CC3CN4)nc3ccccc23)cc1 (centres unmarked) [Example 10, 2-(2,5-Diaza-bicyclo[2.2.1]hept-2-yl)-4-phenyl-quinazoline hydrochloride] | 3.4 nM |
| c1ccc(-c2nc(N[C@H]3CCNC3)nc3ccccc23)cc1 [Example 17, (S)-(−)-3-(4-Phenyl-quinazolin-2-yl)-aminopyrrolidine hydrochloride] | 45 nM |
| CN1CCN(c2nc(-c3ccccc3Cl)c3ccccc3n2)CC1 [Example 19, 4-(2-Chloro-phenyl)-2-(4-methyl-piperazin-1-yl)-quinazoline] | 26.7 nM |
| COc1ccccc1-c1nc(N2CCNCC2)nc2ccccc12 [Example 23, 4-(2-Methoxy-phenyl)-2-piperazin-1-yl-quinazoline hydrochloride] | 29.5 nM |
| c1ccc(Cc2nc(N3CCNCC3)nc3ccccc23)cc1 [Example 28, 4-Benzyl-2-piperazin-1-yl-quinazoline hydrochloride] | 93.4 nM |
| Fc1ccccc1-c1nc(N2CC3CCCC(C2)N3)nc2ccccc12 [Example 33, 2-(3,9-Diaza-bicyclo[3.3.1]non-3-yl)-4-(2-fluoro-phenyl-quinazoline hydrochloride] | 19 nM |
| CN[C@H]1CCN(c2nc(-c3ccccc3F)c3ccccc3n2)C1 [Example 35, (S)-(+)-1-[4-(2-Fluoro-phenyl)-quinazolin-2-yl]-pyrrolidin-3-yl}-methyl-amine hydrochloride] | 19.3 nM |
| c1ccc(-c2nc(C3CCNCC3)nc3ccccc23)cc1 [Example 42, 4-Phenyl-2-piperidin-4-yl-quinazoline hydrochloride] | 13.3 nM |
| CN1CCC(c2nc(-c3ccccc3F)c3ccccc3n2)CC1 [Example 43, 4-(2-Fluoro-phenyl)-2-(1-methyl-piperidin-4-yl)-quinazoline] | 29.2 nM |
| c1ccc(-c2nc(N3C4CCCC3CNC4)nc3ccccc23)cc1 [Example 55, 2-(3,9-Diaza-bicyclo[3.3.1]non-9-yl)-4-phenyl-quinazoline] | 11 nM |
| Fc1cccc(F)c1-c1nc(N[C@H]2CCNC2)nc2ccccc12 [Example 58] | 8 nM |
| Fc1ccc(-c2nc(N3CCNCC3)nc3ccccc23)c(Cl)c1 [Example 61, 4-(2-Chloro-4-fluoro-phenyl)-2-piperazin-1-yl-quinazoline] | 6.9 nM |
| Clc1ccc(-c2nc(N3CCNCC3)nc3ccccc23)cc1 [Example 62, 4-(4-Chloro-phenyl)-2-piperazin-1-yl-quinazoline] | 17.3 nM |
| Fc1ccc2c(-c3ccccc3F)nc(C3CCNCC3)nc2c1 [Example 65, 7-Fluoro-4-(2-fluoro-phenyl)-2-piperidin-4-yl-quinazoline] | 3.3 nM |
| Fc1ccc(-c2nc(C3CCNCC3)nc3ccccc23)cc1 [Example 68, 4-(4-Fluoro-phenyl)-2-piperidin-4-yl-quinazoline] | 40.6 nM |
| Fc1ccc(-c2nc(C3CCNCC3)nc3ccccc23)c(F)c1 [Example 72, 4-(2,4-Difluoro-phenyl)-2-piperidin-4-yl-quinazoline] | 17.7 nM |
| Fc1cccc(Cl)c1-c1nc(C2CCNCC2)nc2ccccc12 [Example 75, 4-(2-Chloro-6-fluoro-phenyl)-2-piperidin-4-yl-quinazoline] | 5.9 nM |
| Cc1ccccc1-c1nc(C2CCNCC2)nc2ccccc12 [Example 76, 2-Piperidin-4-yl-4-o-tolyl-quinazoline] | 44.7 nM |
| c1ccc(-c2nc(N3CC4CC3CN4)nc3ccccc23)cc1 (centres unmarked) [Example 80, 2-(2,5-Diaza-bicyclo[2.2.1]hept-2-yl)-4-phenyl-quinazoline] | 9.5 nM |
| c1ccc(-c2nc(N3CC4CNCC4C3)nc3ccccc23)cc1 (centres unmarked) [Example 81, 2-(Hexahydro-pyrrolo[3,4-c]pyrrol-2-yl)-4-phenyl-quinazoline] | 61 nM |
